As a reminder, the Kd is the constant that tells how readily two partners part at equilibrium. As usually defined, the IC50 is the point on the concentration scale where inhibition reaches its midpoint.

The text below walks through data of patent US5942493A, “LH-RH antagonists having improved action” (ASTA Medica Aktiengesellschaft, priority 1995, dated 1999).

A short description of data set [1]: Water solubility. Type of data set: physicochemical.
The test system of data set [2] is histamine release. The data set can be described thus: Histamine release in vitro.
Data set [3] deals with T1, human LH-RH receptor (Homo sapiens, UniProt P30968).
T1 construct: expressed in transfected cells
T1 sequence (P30968 1-328): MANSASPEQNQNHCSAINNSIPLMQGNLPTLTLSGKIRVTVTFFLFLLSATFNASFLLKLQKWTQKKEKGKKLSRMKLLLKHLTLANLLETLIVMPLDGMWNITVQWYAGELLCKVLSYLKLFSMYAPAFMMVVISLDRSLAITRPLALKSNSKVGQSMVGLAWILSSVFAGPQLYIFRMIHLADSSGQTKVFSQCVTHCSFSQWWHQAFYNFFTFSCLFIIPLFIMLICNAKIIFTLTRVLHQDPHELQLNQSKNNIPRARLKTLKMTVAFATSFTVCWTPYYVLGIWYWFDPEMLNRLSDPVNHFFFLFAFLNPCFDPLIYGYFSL
The data set can be described thus: Competitive binding test (displacement of [125I] Cetrorelix) on cell clone L3.5/78. How it is done: Method for the determination of the binding affinity (dissociation constant Kd):
The binding affinity was determined by a competitive binding test ("displacement binding experiment"; Beckers et al. Eur. J. Biochem. 231, 535-543, 1995). The radiolabelled ligand used is [^125 I] Cetrorelix (specific activity 5-10×10^5 dpm/pmol; dissolved in 20% v:v acetonitrile, 0.2% w:v albumin, 0.1% w:v TFA, ~80% v:v aqua). The binding ability of the iodinated peptide is between 60% and 85%. The non-labelled test compounds used are Cetrorelix, Example 1, Example 2 and […] in solution. The substances are employed in concentrations of 0.01 nM-1000 nM (Cetrorelix, Example 1, Example 2) or 0.01 μM-10 μM (Example 56).
The cells of the individual cell clone L3.5/78 verexpressing the human LH-RH receptor which are used for the binding test are removed with PBS/EDTA (PBS without Ca^2+ /Mg^2+ /1 mM EDTA) from a cell culture dish grown under non-confluent conditions, the cell count is determined and the cells are resuspended in incubation medium (Dulbecco's modified Eagle Medium with 4.5 g/l glucose, 10 mM Hepes pH 7.5, 0.5% w:v BSA, 1 g/l bacitracin, 0.1 g/l SBTI, 0.1% w:v NaN3) at a corresponding cell density. 200 μl of silicone/paraffin oil mixture (84/16% by volume) are initially introduced into special 400 μl reaction vessels (Renner, Beckman type) and 50 μl of the cell suspension (2.5×10^5 cells) are pipetted onto it. 50 μl of binding medium containing [^125 I] Cetrorelix and the compound to be tested at the appropriate concentration are added to the cell suspension on the silicone/paraffin oil layer. The mixture is then incubated with rotation for 60 min at 37° C. in a warm cabinet. After this step, it is centrifuged at 9000 rpm (room temperature) for 2 min in the Heraeus Biofuge 15 in the HTA 13.8 rotor. In the course of this, the cells pelletize through the silicone/paraffin oil layer and are thus separated from the binding medium. After centrifugation, the reaction vessels are shock-frozen in liquid N2 and the tip of the reaction vessel (cell pellet) is cut off with a pair of pincers and the tip containing the cell pellet (bound ligand [^125 I] Cetrorelix) and the supernatant (unbound, free ligand [^125 I] Cetrorelix) are transferred to counting tubes. To determine the maximum binding (Bo), no competitor is added. For the determination of non-specific binding, 1 μM unlabelled Cetrorelix is added for competition. At ≤10% of the total binding Bo, the non-specific binding is low. Quantification is carried out in a γ-counter; analysis is carried out using the EBDA/ligand V3.0 programme (McPherson, J. Pharmacol. Methods 14, 213-228, 1985). Plotting in the dose-response graph makes possible the estimation of the IC50 (concentration which causes 50% inhibition of the reaction at the receptor) and the EBDA/ligand programme calculates the dissociation constant Kd [nM] from this.
(Loss of bound radioactivity is the signal in a displacement assay; it reports binding, not function.)

For data set [4], the system named is testosterone in the blood. Description: Hormone-suppressive action: testosterone suppression in the healthy male rat. In kind it is in vivo. The method, then: To determine the suppression of testosterone in the blood of healthy male rats, the substance was injected subcutaneously into the right flank of the animals. The dosage was 1.5 mg/kg in the case of Example 1 and Example 2 and 10 mg/kg in the case of Example 56. To check the testosterone values, about 300 μl of blood were taken from the animals from the sublingual vein at the times 0, 2, 4, 8 (only Example 56), 24, 48, 72 and 96 hours, and then every 3 days until the end of suppression. […] Example 56 (10 mg/kg s.c.) suppressed the testosterone level in all 5 animals even after 2 hours and maintained this action for up to 8 hours. At the next measuring point (24 h), the testosterone values rose again (FIG. 6).

Data set [5] deals with T1, human LH-RH receptor. The data set can be described thus: Functional assay: inhibition of LH-RH-stimulated IP3 formation in cell clone L 3.5/78. In kind it is cell-based. As to conditions: for IC50: stimulation with 10 nM LH-RH, estimated from dose-response curve. How it is done: Method for the determination of IP3 (D-myo-[…]): a subconfluent culture of the cell clone (L 3.5/78) overexpressing the human LH-RH receptor is washed 1× with PBS, the cells are removed with PBS/EDTA and the cell suspension is pelletted. The cells are resuspended in incubation medium (Dulbecco's modified Eagle Medium with 4.5 g/l of glucose, 10 mM Hepes pH 7.5, 0.5% w:v BSA, 5 mM of LiCl, 1 g/l of bacitracin, 0.1 g/l of SBTI), aliquoted into 1.5 ml reaction vessels and preincubated at 37° C. for 30 min. 4×10^6 cells in a 500 μl volume are needed per measuring point. After the preincubation step, LH-RH (stock solution 0.5 mM in 10 mM tris pH 7.5, 1 mM dithiothreitol, 0.1% w:v BSA/Bachem Art # H4005) are added to the cell suspension at a final concentration of 10 nM. The action of an antagonist is tested by simultaneous addition at the corresponding concentration (for example 0.0316, 0.1, 0.316 etc. up to 100 nM for Example 2). As a negative control, cells without added LH-RH are incubated. After incubation at 37° C. for 15 min, IP3 formed is isolated from the cells by means of trichloroacetic acid (TCA) extraction. To this end, 500 μl of ice-cold 15% (w:v) TCA solution are added to the cell suspension. The resulting precipitate is pelletted by centrifugation at […] in the Heraeus Biofuge 15R centrifuge at 2000×g for 15 min. The supernatant of 950 μl is extracted 3× with 10 vol of cold, water-saturated diethyl ether in a 15 ml vessel standing on ice. After the last extraction step, the solution is adjusted to a pH of 7.5 with 0.5 M NaHCO3 solution.
The determination of the IP3 concentration in the cell extracts is carried out by means of a sensitive competitive binding test using an IP3 binding protein, labelled [^3 H]-IP3 and unlabelled IP3. To this end, an assay kit from Amersham (TRK 1000) is used; the determination is carried out as described in the assay protocol. After carrying out the various steps, 2 ml of scintillator for aqueous samples (Rotiszint Ecoplus) is finally added, the resuspended pellet containing the bound [^3 H]-IP3 is carefully mixed with it, and measured in a β-scintillation counter. The amount of cellular IP3 is calculated using a standard curve and a dose-response curve is set up. The IC50 can be estimated from the inflection point of this curve.

Where [6] appears, read: [125I] Cetrorelix as ligand, single curves of FIG. 1, read-out: binding affinity as the dissociation constant Kd (competition curves of FIG. 1).
Where [7] appears, read: mean values from various experiments, number of experiments in brackets, read-out: Affinity human LH-RH receptor (dissociation constant Kd).
[8] abbreviates: 10 mg/kg s.c., healthy male rats, all 5 animals.

Read-outs that look alike come from different tables or passages of the source. *1 amine or outer side, *2 acyl side, *3 side chain or, on linkers, in order; H or OH if unused. Where a SMILES comes first, the peptide text is derived from it. Side-chain parts run from the residue outwards. [ ]: non-standard residue; d: D form. The star is where a group is joined. NH(4-amidinophenyl) = N=C(N)c1ccc(N*)cc1; dPhe(4-Cl) = N[C@H](Cc1ccc(Cl)cc1)C(=O)O; d2Nal = N[C@H](Cc1ccc2ccccc2c1)C(=O)O; dCit = NC(=O)NCCC[C@@H](N)C(=O)O; d3Pal = N[C@H](Cc1cccnc1)C(=O)O; Suc = O=C(CCC(=O)[*:2])[*:1]

In the case of `CC(=O)N[C@H](Cc1ccc2ccccc2c1)C(=O)N[C@H](Cc1ccc(Cl)cc1)C(=O)N[C@H](Cc1cccnc1)C(=O)N[C@@H](CO)C(=O)N[C@@H](Cc1ccc(O)cc1)C(=O)N[C@H](CCCCNC(=O)C1CNC(=O)N1)C(=O)N[C@@H](CC(C)C)C(=O)N[C@@H](CCCNC(=N)N)C(=O)N1CCC[C@H]1C(=O)N[C@H](C)C(N)=O` (single isomer, unassigned) [Example 1, Ac-D-Nal(2)-D(pCl)Phe-D-Pal(3)-Ser-Tyr-D-[ε-N'-(imidazolidin-2-on-4-yl)formyl]-Lys-Leu-Arg-Pro-D-Ala-NH2], the “H2O Solubility” value in data set [1] was determined as 27 mg/mL. Besides, the “(IC50) Histamine releage” value in data set [2] was 31.9 µg/mL. Besides, the Kd was 0.305 nM in data set [3] (setting [6]) and 0.306 nM in data set [3] (setting [7]).

On to `CC(=O)N[C@H](Cc1ccc2ccccc2c1)C(=O)N[C@H](Cc1ccc(Cl)cc1)C(=O)N[C@H](Cc1cccnc1)C(=O)N[C@@H](CO)C(=O)N[C@@H](Cc1ccc(O)cc1)C(=O)N[C@H](CCCCNC(=O)C1CNC(=O)N1)C(=O)N[C@@H](CC(C)C)C(=O)N[C@@H](CCCNC(=N)N)C(=O)N1CCC[C@H]1C(=O)N[C@H](C)C(N)=O` (single isomer, unassigned) [Example 3], for which, in data set [3] (setting [7]), the Kd came out at 0.17 nM.

Turning to `CC(=O)N[C@H](Cc1ccc2ccccc2c1)C(=O)N[C@H](Cc1ccc(Cl)cc1)C(=O)N[C@H](Cc1cccnc1)C(=O)N[C@@H](CO)C(=O)N[C@@H](Cc1ccc(O)cc1)C(=O)N[C@H](CCCNC(N)=O)C(=O)N[C@@H](CC(C)C)C(=O)N[C@@H](CCCNC(=N)N)C(=O)N1CCC[C@H]1C(=O)N[C@H](C)C(N)=O` [Cetrorelix, Ac-D-Nal(2)-D-p-Cl-Phe-D-Pal(3)-Ser-Tyr-D-Cit-Leu-Arg-Pro-D-Ala-NH2, reference compound] (Ac-[d2Nal][dPhe(4-Cl)][d3Pal]SY[dCit]LRP[dA]-NH2), the “(1.5 mg/kg, single dose) testosterone suppression rats” value in data set [4] (1.5 mg/kg, single dose, rats) is reported as 144 h. Further, in data set [1], the “H2O Solubility” value is 9 mg/mL. Also, the “(IC50) Histamine releage” value in data set [2] was determined as 9.7 µg/mL. Moreover, the equilibrium dissociation constant (Kd) in data set [3] (setting [6]) is 0.214 nM; in data set [3] (setting [7]) it was 0.202 nM.

For the molecule `CC(=O)N[C@H](Cc1ccc2ccccc2c1)C(=O)N[C@H](Cc1ccc(Cl)cc1)C(=O)N[C@H](Cc1cccnc1)C(=O)N[C@@H](CO)C(=O)N[C@@H](Cc1ccc(O)cc1)C(=O)N[C@H](CCCCNC(=O)CCC(=O)Nc1ccc(C(=N)N)cc1)C(=O)N[C@@H](CC(C)C)C(=O)N[C@@H](CCCNC(=N)N)C(=O)N1CCC[C@H]1C(=O)N[C@H](C)C(N)=O` [Example 2, Ac-D-Nal(2)-D(pCl)Phe-D-Pal(3)-Ser-Tyr-D-[ε-N'-4-(4-amidinophenyl)amino-1,4-dioxobutyl]-Lys-Leu-Arg-Pro-D-Ala-NH2] (Ac-[d2Nal][dPhe(4-Cl)][d3Pal]SY[dK]([Suc-NH(4-amidinophenyl)])LRP[dA]-NH2), the IC50 in data set [5] was around 0.4 nM. For the same molecule, the “H2O Solubility” value in data set [1] was 23 mg/mL. The “(IC50) Histamine releage” value in data set [2] was determined as 17.1 µg/mL. For the same molecule, the Kd in data set [3] (setting [6]) came to 0.104 nM; in data set [3] (quoted in Example 84, read-out: in vitro binding affinity Kd, competitive binding test using [125I]-Cetrorelix) it was 0.109 nM.

With `CC(=O)N[C@H](Cc1ccc2ccccc2c1)C(=O)N[C@H](Cc1ccc(Cl)cc1)C(=O)N[C@H](Cc1cccnc1)C(=O)N[C@@H](CO)C(=O)N[C@@H](Cc1ccc(O)cc1)C(=O)N[C@H](CCCCNC(=O)CCC(=O)Nc1ccc(C(=N)N)cc1)C(=O)N[C@@H](CC(C)C)C(=O)N[C@@H](CCCNC(=N)N)C(=O)N1CCC[C@H]1C(=O)N[C@H](C)C(N)=O` [Example 4] (Ac-[d2Nal][dPhe(4-Cl)][d3Pal]SY[dK]([Suc-NH(4-amidinophenyl)])LRP[dA]-NH2), in data set [3] (setting [7]), the dissociation constant (Kd) stood at 0.206 nM.

With `N=C(N)c1ccc(NC(=O)CCC(=O)NCCCCC(NC(=O)OCc2ccccc2)C(N)=O)cc1.O=C(O)C(F)(F)F` (stereo not shown) [Example 56], the “functional character at the LH-RH receptor” value in data set [5] (10 nM LH-RH, IP3 formation) is given as “functional antagonists of LH-RH”. In data set [5], the concentration for half-maximal inhibition (IC50) was around 4000 nM. Moreover, the “agonistic activity (stimulation of IP3 synthesis by the substance itself)” value in data set [5] (without LH-RH) is given as “not possible to determine any agonistic activity”. Also, in data set [4] (setting [8]), the “duration of testosterone suppression” value is given as “up to 8 hours” and the “time at which testosterone level was already suppressed” value is 2 h. The Kd in data set [3] (setting [7]) stood at 1080 nM.
